Laboratory results published in patent US20060069132A1, “Azolecarboxamide herbicides” (priority 2004, published 2006).

Key:
Test in all cases: Test C postemergence herbicide test
[1] = system: winter barley; format: in vivo, Hordeum vulgare
In short: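 Ratings (0 = no effect, 100 = complete control) come from visual comparison with untreated plants after 12 to 14 days in the greenhouse. Treatment was postemergence at the 1- to 4-leaf stage (2–18 cm), or at the 2-leaf stage for the flooded paddy barnyardgrass.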

[2] = system: canarygrass; format: in vivo, Phalaris minor
In short: (§1)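 Postemergence sprays were applied to plants 2 to 18 cm tall (1- to 4-leaf stage); in the flooded paddy test, barnyardgrass was grown to the 2-leaf stage. After 12 to 14 days in a greenhouse, injury was visually rated against untreated controls on a 0–100 scale (100 = complete control).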

[3] = system: green foxtail; format: in vivo, Setaria viridis
In short: as §1

[4] = system: wild oat; format: in vivo, Avenafatua
In short: as §1

[5] = system: windgrass; format: in vivo, Apera spica-venti
In short: as §1

[6] = Postemergence, 125 g ai/ha, scale 0 to 100, 0 no effect, 100 complete control
[7] = Postemergence, 250 g ai/ha, scale 0 to 100, 0 no effect, 100 complete control
[8] = postemergence, 31 g ai/ha, scale 0 to 100
[9] = postemergence, 62 g ai/ha, scale 0 to 100 (0 no effect, 100 complete control)
[10] = postemergence, 125 g ai/ha, scale 0 to 100
[11] = postemergence, 62 g ai/ha, scale 0 to 100
[12] = Postemergence, 500 g ai/ha, scale 0 to 100
[13] = Postemergence, 500 g ai/ha, scale 0 to 100, 0 no effect, 100 complete control

| Structure (SMILES) | Plant response rating, Barley, Winter [1, 6] | Plant response rating, Barley, Winter [1, 7] | Plant response rating, Barley, Winter [1, 8] | Plant response rating, Barley, Winter [1, 9] | Plant response rating, Canarygrass [2, 7] | Plant response rating, Canarygrass [2, 10] | Plant response rating, Canarygrass [2, 8] | Plant response rating, Canarygrass [2, 11] | Plant response rating, Foxtail, Green [3, 7] | Plant response rating, Foxtail, Green [3, 10] | Plant response rating, Foxtail, Green [3, 11] | Plant response rating, Oat, Wild [4, 7] | Plant response rating, Oat, Wild [4, 10] | Plant response rating, Oat, Wild [4, 11] | Plant response rating, Windgrass [5, 7] | Plant response rating, Windgrass [5, 10] | Plant response rating, Windgrass [5, 11] | Barley, Winter plant response rating [1, 12] | Plant response rating, Canarygrass [2, 13] | Plant response rating, Foxtail, Green [3, 13] | further results |
| --- | --- | --- | --- | --- | --- | --- | --- | --- | --- | --- | --- | --- | --- | --- | --- | --- | --- | --- | --- | --- | --- |
| CCOC(=O)c1cccc(NC(=O)c2cc(C3(C)CC3)nn2CC)c1 [Compound 295] | 35 | 35 | 35 | 35 | 35 | 35 | 25 | 30 | 60 | 50 | 45 | 50 | 50 | 50 | 65 | 60 | 50 | – | – | – | – |
| CCn1nc(C(C)(C)C)cc1C(=O)Nc1cc(OC(F)(F)F)ccc1F [Compound 338] | 30 | 35 | – | 20 | 40 | 25 | – | 20 | 40 | 40 | 30 | 50 | 45 | 40 | – | 15 | 10 | 40 | 50 | 50 | Plant response rating, Oat, Wild [4, 13]: 60 |
| CCn1nc(C(C)(C)C)cc1C(=O)Nc1cccc(C(=O)NCC2CC2)c1 [Compound 62] | 10 | – | 0 | 10 | 40 | 30 | 0 | 0 | 50 | 50 | 40 | 50 | 40 | 30 | 50 | 40 | 30 | – | – | – | Barley, Winter plant response rating ([1]; Postemergence, 250 g ai/ha, scale 0 to 100): 10 |
| CCCCOc1cccc(NC(=O)c2cc(C(C)(C)C)nn2CC)c1 [Compound 137] | 20 | 20 | – | 10 | 40 | 30 | – | 20 | 50 | 50 | 30 | 40 | 40 | 20 | 50 | 50 | 30 | 30 | – | – | Canarygrass plant response rating [2, 12]: 40; Foxtail, Green plant response rating [3, 12]: 50; Oat, Wild plant response rating [4, 12]: 50; Windgrass plant response rating [5, 12]: 60 |
| CCn1nc(C2(C)CC2)cc1C(=O)Nc1cc(C(=O)N2CC=CC2)ccc1F [Compound 301] | 30 | 30 | – | 30 | 50 | 45 | – | 35 | 60 | 45 | 40 | 75 | 65 | 45 | 35 | 35 | 35 | 40 | – | – | Canarygrass plant response rating [2, 12]: 50; Foxtail, Green plant response rating [3, 12]: 65; Oat, Wild plant response rating [4, 12]: 60; Windgrass plant response rating [5, 12]: 40 |
| CCn1nc(C(C)(C)C)cc1C(=O)Nc1cccc(OS(=O)(=O)CC)c1 [Compound 408] | 30 | 35 | – | 30 | 40 | 30 | – | 20 | 70 | 60 | 40 | – | 55 | 45 | – | 45 | 40 | 40 | 45 | 80 | Plant response rating, Oat, Wild [4, 13]: 70; Plant response rating, Windgrass [5, 13]: 65 |
